From US10023559B2 (Hoffmann-La Roche Inc., priority 2014, dated 2018)

Tests used:
[1] = molecular target: mouse TAAR1 (Mus musculus (Mouse), UniProt Q923Y8); assay: Radioligand binding assay on mouse TAAR1
[2] = molecular target: rat TAAR1 (Rattus norvegicus (Rat), UniProt Q923Y9); assay: Radioligand binding assay on rat TAAR1; details: read-out: Ki(μM) rat; rat TAAR1, HEK-293 membranes, second value of cell pair mouse/rat
Sequence of rat TAAR1 (Q923Y9 whole entry): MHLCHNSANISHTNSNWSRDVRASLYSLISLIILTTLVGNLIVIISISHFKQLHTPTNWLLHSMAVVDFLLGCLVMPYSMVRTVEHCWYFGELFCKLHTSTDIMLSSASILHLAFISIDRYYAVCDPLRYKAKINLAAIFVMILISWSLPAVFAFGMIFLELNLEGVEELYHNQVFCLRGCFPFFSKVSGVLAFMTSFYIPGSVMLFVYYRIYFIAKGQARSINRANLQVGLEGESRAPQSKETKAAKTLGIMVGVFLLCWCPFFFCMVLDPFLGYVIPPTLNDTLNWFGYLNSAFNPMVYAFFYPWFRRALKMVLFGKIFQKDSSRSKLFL

Sequence of mouse TAAR1 (Q923Y8 whole entry): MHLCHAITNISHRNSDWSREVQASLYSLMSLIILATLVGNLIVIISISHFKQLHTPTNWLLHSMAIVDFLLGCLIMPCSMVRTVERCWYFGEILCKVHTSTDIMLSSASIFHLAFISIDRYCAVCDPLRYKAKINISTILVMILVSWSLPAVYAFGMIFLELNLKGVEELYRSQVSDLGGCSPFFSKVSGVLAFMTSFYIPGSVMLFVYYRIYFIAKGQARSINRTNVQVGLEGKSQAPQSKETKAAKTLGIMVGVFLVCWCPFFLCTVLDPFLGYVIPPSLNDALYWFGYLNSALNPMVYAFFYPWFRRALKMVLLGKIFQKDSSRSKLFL

Ki [1] [nM] | Ki [2] [µM] | SMILES
3.5 | 0.0392 | CCc1n[nH]c(C(=O)Nc2ccc(OC3CNC3)cc2)c1Cl [Example 41, N-[4-(azetidin-3-yloxy)phenyl]-4-chloro-3-ethyl-1H-pyrazole-5-carboxamide]
6.8 | 0.0435 | Cn1nc(C(=O)Nc2ccc(OC3CNC3)cc2)c(Cl)c1C(F)(F)F [Example 43, N-[4-(azetidin-3-yloxy)phenyl]-4-chloro-1-methyl-5-(trifluoromethyl)pyrazole-3-carboxamide]
8.5 | 0.165 | O=C(Nc1ccc(SC2CNC2)cc1)c1cnc(C2CC2)nc1 [Example 44, N-[4-(azetidin-3-ylsulfanyl)phenyl]-2-cyclopropyl-pyrimidine-5-carboxamide]
1990 | 0.552 | FC1(Cc2ccccc2)CNC1 [Example 46, 3-benzyl-3-fluoro-azetidine]
3.9 | 0.0468 | CCc1n[nH]c(C(=O)Nc2ccc(OC3CNC3)cc2)c1Br [Example 47, N-[4-(azetidin-3-yloxy)phenyl]-4-bromo-3-ethyl-1H-pyrazole-5-carboxamide]
14.3 | 0.0943 | Cc1[nH]nc(C(=O)Nc2ccc(OC3CNC3)cc2)c1Br [Example 48, N-[4-(azetidin-3-yloxy)phenyl]-4-bromo-3-methyl-1H-pyrazole-5-carboxamide]
1390 | 0.291 | FC(F)(c1ccc(Br)cc1)C1CNC1 [Example 49, 3-[(4-bromophenyl)-difluoro-methyl]azetidine]
793 | 0.0998 | Brc1ccc(C=C2CNC2)cc1 [Example 50, 3-[(4-bromophenyl)methylene]azetidine]
0.9 | 0.0035 | O=C(Nc1ccc(CC2(F)CNC2)cc1)c1ccc(Cl)cc1 [Example 52, 4-chloro-N-[4-[(3-fluoroazetidin-3-yl)methyl]phenyl]benzamide]
3 | 0.0182 | O=C(Nc1ccc(CC2(F)CNC2)cc1)c1ccc(Cl)nc1 [Example 54, 6-chloro-N-[4-[(3-fluoroazetidin-3-yl)methyl]phenyl]pyridine-3-carboxamide]
16.1 | 0.0059 | O=C(Nc1ccc(CC2(F)CNC2)cc1)c1cnc(C(F)(F)F)nc1 [Example 55, N-[4-[(3-fluoroazetidin-3-yl)methyl]phenyl]-2-(trifluoromethyl)pyrimidine-5-carboxamide]
1.4 | 0.0188 | O=C(Nc1ccc(C=C2CNC2)cc1)c1n[nH]c(C2CC2)c1Cl [Example 58, N-[4-(azetidin-3-ylidenemethyl)phenyl]-4-chloro-3-cyclopropyl-1H-pyrazole-5-carboxamide]
8.4 | 0.0099 | O=C(Nc1ccc(C=C2CNC2)cc1)c1ccnc(C(F)(F)F)c1 [Example 60, N-[4-(azetidin-3-ylidenemethyl)phenyl]-2-(trifluoromethyl)pyridine-4-carboxamide]
121 | 0.246 | O=C(Nc1ccc(C=C2CNC2)cc1)c1ccc(Cl)cc1 [Example 61, N-[4-(azetidin-3-ylidenemethyl)phenyl]-4-chloro-benzamide]
8.1 | 0.0181 | FC(F)(F)c1nccc(Nc2ccc(C=C3CNC3)cc2)n1 [Example 62, N-[4-(azetidin-3-ylidenemethyl)phenyl]-2-(trifluoromethyl)pyrimidin-4-amine]
61.4 | 0.0385 | FC(F)(F)c1cnc(Nc2ccc(C=C3CNC3)cc2)nc1 [Example 63, N-[4-(azetidin-3-ylidenemethyl)phenyl]-5-(trifluoromethyl)pyrimidin-2-amine]
15 | 0.0615 | O=C(Nc1ccc(CC2CNC2)cc1)c1ccc(Cl)nc1 [Example 64, N-[4-(azetidin-3-ylmethyl)phenyl]-6-chloro-pyridine-3-carboxamide]
2.6 | 0.023 | O=C(Nc1ccc(C=C2CNC2)cc1)c1ccc(Cl)nc1 [Example 65, N-[4-(azetidin-3-ylidenemethyl)phenyl]-6-chloro-pyridine-3-carboxamide]
323 | 0.0824 | CCc1n[nH]c(C(=O)Nc2ccc(CC3(F)CNC3)cc2)c1Cl [Example 66, 4-chloro-3-ethyl-N-[4-[(3-fluoroazetidin-3-yl)methyl]phenyl]-1H-pyrazole-5-carboxamide]
6.4 | 0.0071 | COc1cc(C(=O)Nc2ccc(CC3(F)CNC3)cc2)nc(C(F)(F)F)n1 [Example 68, 6 N-[4-[(3-fluoroazetidin-3-yl)methyl]phenyl]-6-methoxy-2-(trifluoromethyl)pyrimidine-4-carboxamide]
42.1 | 0.0361 | O=C(Nc1ccc(CC2(F)CNC2)cc1)c1cnc(OCC(F)(F)F)nc1 [Example 69, N-[4-[(3-fluoroazetidin-3-yl)methyl]phenyl]-2-(2,2,2-trifluoroethoxy)pyrimidine-5-carboxamide]
6.9 | 0.0099 | O=C(Nc1ccc(CC2(F)CNC2)cc1)c1cnc(C(F)(F)F)cn1 [Example 70, N-[4-[(3-fluoroazetidin-3-yl)methyl]phenyl]-5-(trifluoromethyl)pyrazine-2-carboxamide]
52.9 | 0.0417 | COC1(Cc2ccc(NC(=O)c3cnc(C(F)(F)F)nc3)cc2)CNC1 [Example 74, N-[4-[(3-methoxyazetidin-3-yl)methyl]phenyl]-2-(trifluoromethyl)pyrimidine-5-carboxamide]
5.2 | 0.0106 | O=C(Nc1ccc(OC2CNC2)cc1)c1cnc(C(F)(F)F)cn1 [Example 75, N-[4-(azetidin-3-yloxy)phenyl]-5-(trifluoromethyl)pyrazine-2-carboxamide]
4 | 0.0187 | O=C(Nc1ccc(OC2CNC2)cc1)c1cnc(OCC(F)(F)F)cn1 [Example 77, N-[4-(azetidin-3-yloxy)phenyl]-5-(2,2,2-trifluoroethoxy)pyrazine-2-carboxamide]

SMILES | Ki [1] [nM] | Ki [2] [µM]
O=C(Nc1ccc(OC2CNC2)cc1)c1[nH]nc(C2CC2)c1F [Example 42, N-[4-(azetidin-3-yloxy)phenyl]-3-cyclopropyl-4-fluoro-1H-pyrazole-5-carboxamide] | 15 | 0.113
O=C(Nc1ccc(SC2CNC2)cc1)c1cnc(C(F)(F)F)nc1 [Example 45, N-[4-(azetidin-3-ylsulfanyl)phenyl]-2-(trifluoromethyl)pyrimidine-5-carboxamide] | 35.5 | 0.129
O=C(Nc1ccc(C(F)(F)C2CNC2)cc1)c1ccc(Cl)cc1 [Example 51, N-[4-[azetidin-3-yl(difluoro)methyl]phenyl]-4-chloro-benzamide] | 1.1 | 0.0515
O=C(Nc1ccc(Cl)nc1)c1ccc(OC2CNC2)cc1Cl [Example 53, 4-(azetidin-3-yloxy)-2-chloro-N-(6-chloro-3-pyridyl)benzamide] | 55.2 | 2.43
O=C(Nc1ccc(CC2(F)CNC2)cc1)c1n[nH]c(C2CC2)c1Cl [Example 56, 4-chloro-3-cyclopropyl-N-[4-[(3-fluoroazetidin-3-yl)methyl]phenyl]-1H-pyrazole-5-carboxamide] | 3.4 | 0.0151
O=C(Nc1ccc(CC2(F)CNC2)cc1)c1cnc(OCC(F)(F)F)cn1 [Example 57, N-[4-[(3-fluoroazetidin-3-yl)methyl]phenyl]-5-(2,2,2-trifluoroethoxy)pyrazine-2-carboxamide] | 14.7 | 0.0369
O=C(Nc1ccc(C=C2CNC2)cc1)c1cnc(C(F)(F)F)nc1 [Example 59, N-[4-(azetidin-3-ylidenemethyl)phenyl]-2-(trifluoromethyl)pyrimidine-5-carboxamide] | 8.9 | 0.0079
CCOc1ccc(C(=O)Nc2ccc(CC3(F)CNC3)cc2)nn1 [Example 67, 6-ethoxy-N-[4-[(3-fluoroazetidin-3-yl)methyl]phenyl]pyridazine-3-carboxamide] | 29.4 | 0.0968
O=C(Nc1ccc(C[C@H]2CCN2)cc1)c1ccc(Cl)cc1 [Example 71, N-[4-[[(2S)-azetidin-2-yl]methyl]phenyl]-4-chloro-benzamide] | 1 | 0.0065
O=C(Nc1ccc(C[C@@H]2CCN2)cc1)c1ccc(Cl)cc1 [Example 72, N-[4-[[(2R)-azetidin-2-yl]methyl]phenyl]-4-chloro-benzamide] | 3.9 | 0.0686
COC1(Cc2ccc(NC(=O)c3ccc(Cl)nc3)cc2)CNC1 [Example 73, 6-chloro-N-[4-[(3-methoxyazetidin-3-yl)methyl]phenyl]pyridine-3-carboxamide] | 13.6 | 0.0543
CCOc1ccc(C(=O)Nc2ccc(OC3CNC3)cc2)nn1 [Example 76, N-[4-(azetidin-3-yloxy)phenyl]-6-ethoxy-pyridazine-3-carboxamide] | 54 | 0.167
O=C(Nc1ccc(C[C@@H]2CCN2)cc1)c1cnc(C(F)(F)F)nc1 [Example 78, N-[4-[[(2R)-azetidin-2-yl]methyl]phenyl]-2-(trifluoromethyl)pyrimidine-5-carboxamide] | 29.3 | 0.269
O=C(Nc1ccc(C[C@@H]2CCN2)cc1)c1ccc(Cl)nc1 [Example 79, N-[4-[[(2R)-azetidin-2-yl]methyl]phenyl]-6-chloro-pyridine-3-carboxamide] | 10 | 0.348
O=C(Nc1ccc(C[C@H]2CCN2)cc1)c1cnc(C(F)(F)F)nc1 [Example 80, N-[4-[[(2S)-azetidin-2-yl]methyl]phenyl]-2-(trifluoromethyl)pyrimidine-5-carboxamide] | 27.2 | 0.026
O=C(Nc1ccc(C[C@H]2CCN2)cc1)c1ccc(Cl)nc1 [Example 81, N-[4-[[(2S)-azetidin-2-yl]methyl]phenyl]-6-chloro-pyridine-3-carboxamide] | 4.1 | 0.0202
